This assay concerns the target prohibitin 2 (PHB2) (Homo sapiens, UniProt Q99623). The assay can be described thus: diazirine photoaffinity labelling (UV […] nm) with pull-down/western blot; DARTS. In kind it is cell-based. Details: endogenous PHB2 in ES-2 cells. (In western blotting, separated proteins are transferred to a membrane and probed.)

Structures are written as SMILES.

Chain of prohibitin 2 (PHB2) (Q99623 2-299): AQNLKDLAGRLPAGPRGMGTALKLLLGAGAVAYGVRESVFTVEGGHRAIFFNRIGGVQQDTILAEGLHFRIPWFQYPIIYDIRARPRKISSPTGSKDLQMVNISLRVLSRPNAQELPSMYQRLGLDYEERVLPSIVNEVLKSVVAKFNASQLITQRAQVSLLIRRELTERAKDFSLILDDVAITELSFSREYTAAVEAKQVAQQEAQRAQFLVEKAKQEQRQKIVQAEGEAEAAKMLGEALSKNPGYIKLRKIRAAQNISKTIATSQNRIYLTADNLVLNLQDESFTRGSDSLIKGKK

Take `C#CCCC1(CC(=O)N2CCC(n3cc(-c4cn5cc(-c6ccccc6)nc5c(C5=CCOCC5)n4)cn3)CC2)N=N1` [YL-939-1]: the “diazirine photoaffinity labelling (UV 365 nm) with pull-down/western blot; DARTS” value was “revealed that only PHB2 protein could be pulled down by the probe (Fig. 4D)”.

Values taken from paper PMC9719519, “Non-classical ferroptosis inhibition by a small molecule targeting PHB2” (Nature Communications, 2022).
